Entries after “also recorded” stand apart in the source; their conditions may differ.

Here are results for eleven compounds from patent US20250161338A1, “Compounds for Anti-aging Intervention” (AGENCY FOR SCIENCE, TECHNOLOGY AND RESEARCH, priority 2022, published 2025).

Assay [1] has as its system wild-type Saccharomyces cerevisiae CEN.PK113-7D yeast strain. Kind of assay: Yeast cell growth (OD600) in SD medium. In kind it is cell-based. The note with it: 0 to 8 mM; 24, 48 and 72 hours. On the procedure:
(§1) Yeast strain was recovered from frozen glycerol stock at 30° C. on YPD agar medium. Yeast was left to propagate in SD medium overnight at 30° C. with shaking at 220 revolutions per minute (rpm). Cells propagated overnight were diluted to a starting optical density at 600 nm (OD600) of approximately 0.2 in fresh SD medium to begin the chronological lifespan (CLS) experiments.
CLS experiments were performed in 96-well plates with 200 μL yeast culture. Cellular inoculums were transferred into 96-well plates containing serially double-diluted concentrations (0 to 10 nM) of rapamycin. Cellular inoculum was transferred into 96-well plates containing serially double-diluted concentrations (0 to 8 mM) of 2,5-anhydro-D-mannitol, D-fructose, D-mannitol, D-maltose, and D-sorbitol in SD medium. Cells were incubated at 30° C., and the growth was measured at different time points. The growth time point 72 hours was considered as Day 1 for the CLS assay. Cell survival was quantified at various age time points by three different approaches: (i) PI fluorescence-based method, (ii) outgrowth in YPD liquid medium, and (iii) spotting assay (FIG. 1).
Firstly, the effect of 2,5-AM on cell growth was determined. Yeast cells were incubated with varying concentrations of 2,5-AM in the SD medium. Cell growth was measured at different time points (24 hours, 48 hours, and 72 hours). […] Then, the survival of chronologically aged cells supplemented with different concentrations of 2,5-AM was measured using the PI fluorescence method. At each chronological age point, a 3 μL culture was transferred to a second 96-well plate containing 200 μL YPD medium. The 72-hour growth culture was considered Day 1 for the CLS analysis. The viability fraction was calculated, and a survival graph was plotted for different chronological age time points (FIG. 5). […] The survival of aged cells supplemented with 2,5-AM (4 mM and 8 mM) on Day 4 was approximately 80%. However, the survival of aged cells without 2,5-AM was approximately 50%. On Day 7, survival of 2,5-AM supplemented aged cells was approximately 75%. However, the survival of aged cells without 2,5-AM was reduced to less than 20%.
Firstly, the effect of fructose, mannitol, maltose, and sorbitol on cell growth was tested. Yeast cells were incubated with various concentrations of fructose, mannitol, maltose, and sorbitol similar to 2,5-AM in the SD medium. […] Next, the survival of chronologically aged cells on day 1, day 7, day 14, and day 21 was measured. […] Aged cells supplemented with 2,5-AM (8 mM) survived (approximately 65%) on Day 21. However, the survival of aged cells without 2,5-AM supplementation was less than 10%.

Assay [2] shares this test system. Kind of assay: Chronological lifespan analysis in yeast (PI, outgrowth, spotting). In kind it is cell-based. On the procedure:
as §1
CLS experiments were performed in 96-well plates with 200 μL yeast culture. Cellular inoculums were transferred into 96-well plates containing serially double-diluted concentrations (0 to 10 nM) of rapamycin. […] Cells were incubated at 30° C., and the growth was measured at different time points. The growth time point 72 hours was considered as Day 1 for the CLS assay. Cell survival was quantified at various age time points by three different approaches: (i) PI fluorescence-based method, (ii) outgrowth in YPD liquid medium, and (iii) spotting assay (FIG. 1).
Yeast cells (40 μL) from different age time points were transferred into a second 96-well plate (different to the 96-well plate in which the CLS analysis as outlined above was performed). Cells were washed and incubated in 100 μL 1×phosphate buffered saline (PBS) with propidium iodide (PI) (5 μg/mL) for 15 minutes in the dark. Positive and negative control samples were included for quantitative analysis. Positive control (cells boiled at 100° C. for 15 minutes) was PI-stained and processed in the same 96-well plate. Samples without PI-stained cells served as the negative control. After incubation, cells were washed and resuspended in 100 μL PBS. The fluorescence reading of the samples (excitation and emission wavelengths at 535 nm and 617 nm, respectively) and OD600 were measured with a microplate reader (BioTek, Winooski, Vermont, United States). The fluorescence intensity of each sample was normalized with OD600. The background fluorescence signal of the unstained negative sample was subtracted from the normalized fluorescence intensity of each sample. The obtained fluorescence intensity of the positive control (boiled dead cells) was considered 0% cell survival. Cell death was validated by allowing the boiled dead cells to grow in medium. Cell survival at different age time points of samples were calculated by normalizing the fluorescence intensity with positive control sample (boiled cells).
Yeast stationary culture (3 μL) of different age time points were transferred to a second 96-well plate, containing 200 μL YPD medium, and incubated for 24 hours at 30° C. Outgrowth (OD600) of aged cells was measured by the microplate reader. Quantification of cell survival for each age point was determined as relative to Day 1 (considered 100% cell survival). This quantification was performed by using the formula,
Yeast stationary culture (3 μL) of different age time points were spotted onto a YPD agar plate and incubated for 48 hours at 30° C. The outgrowth of aged cells on the YPD agar plate was photographed using the Bio-Rad GelDoc Imaging System (Bio-Rad, Hercules, California, United States).

Assay [3] shares this test system. The note with it: very high concentrations (18% equivalent to 1M); by increasing osmolarity; cited from earlier work.
In assay [4] the test system is prototrophic yeast strain (CEN.PK113-7D). Kind of assay: Yeast outgrowth in YPD liquid medium (CLS of aged cells). To be noted: age point day 14. Format: cell-based, Saccharomyces cerevisiae. The method, boiled down: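 Cultures aged at 30 °C in SD medium with double-diluted rapamycin (0–10 nM) or sugars/polyols (0–8 mM). On day 14, 3 µL of culture was transferred into 200 µL YPD and outgrowth read as OD600. Survival expressed relative to day 1 outgrowth (100%).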

The test system is the same in assay [5]. Kind of assay: Propidium iodide fluorescence-based CLS method in yeast (incl. high-throughput screening).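 On PI intensity: untreated reference is eight DMSO and water control wells per plate.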 In kind it is cell-based, Saccharomyces cerevisiae. To be noted: for Yeast CLS increase: Yes/No call of the screen. The method, boiled down:
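CEN.PK113-7D aged in SD medium at 30 °C with compounds (rapamycin 0–10 nM; sugars 0–8 mM; screen at single concentrations). At each age point cells were stained with 5 μg/mL PI for 15 min; fluorescence was normalized to OD600, background-subtracted, and survival scaled against boiled-cell control.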

Assay [6] deals with human cells. Kind of assay: High-throughput chemical screening using the PI method in human cells. In kind it is cell-based. The note with it: Day 6; library tested at 1 μM; controls ranged from 4.22 to 4.53; lower = extended CLS. The method, then: The stock solution of rapamycin, hemin, 5-fluorouracil, atorvastatin, and methotrexate was prepared in DMSO, followed by serial dilution to form various concentrations used in the experiment. The final DMSO concentration was kept at 0.05% in all experiments. The stock solution of 2,5-anhydro-D-mannitol was prepared in D10 medium. The chemical library used in screening were tested at 1 μM concentrations. Controls used were the same as the solvent applied, DMSO or water.
The assay was performed by preparing the cells with PI (2 μg/mL or 5 μg/mL) in a D10 medium. 200 μL culture (8×10^4 cells) was seeded per well in a 96-well plate with different concentrations of the anti-aging drug (rapamycin, 2,5-AM, plicamycin, copanlisib dihydrochloride, nedaplatin, hemin, 5-fluorouracil, methotrexate, or atorvastatin) and no treatment control (DMSO). The culture plate was kept away from light throughout the experiment and incubated at 37° C. with 5% CO2. At different age time points, reading was taken with a Synergy MX microplate reader (BioTek, Winooski, Vermont, United States) at 535 nm excitation and 617 nm emission.
The PI method was used to identify additional novel anti-aging compounds that prolong CLS. A total of 162 compounds were screened, including some FDA-approved drugs and natural products. The log10 values of the PI intensity for the various control samples ranged from 4.22 to 4.53.

Where [7] appears, read: 0 to 8 mM in SD medium, up to day 21.
[8] abbreviates: concentration tested 100 μM, OD600 nm after 24 h in YPD at 30° C.
Where [9] appears, read: concentration tested 100 μM, solvent DMSO or water, chronological age point Day 7 (72 h growth = Day 1), lower = more survival.

Turning to `O=C(CO)[C@@H](O)[C@H](O)[C@H](O)CO` [fructose, D-fructose], the cell growth result in assay [1] is reported as “reached growth saturation after 24 hours”. Also, the “effect on yeast CLS” value in assay [2] (setting [7]) was “did not extend the lifespan of the yeast”.

As for `OC[C@H]1O[C@H](O[C@H]2[C@H](O)[C@@H](O)[C@H](O)O[C@@H]2CO)[C@H](O)[C@@H](O)[C@@H]1O` [maltose, D-maltose], the cell growth entry in assay [1] is recorded as “reached growth saturation after 24 hours”. For the same compound, in assay [2] (setting [7]), the “effect on yeast CLS” value is given as “did not extend the lifespan of the yeast”.

Consider `OC[C@@H](O)[C@@H](O)[C@H](O)[C@H](O)CO` [mannitol, D-mannitol], for which the cell growth entry in assay [1] was “reached growth saturation after 24 hours”. Besides, the “effect on yeast CLS” value in assay [2] (setting [7]) is listed as “did not extend the lifespan of the yeast”.

Take `OC[C@@H](O)[C@@H](O)[C@H](O)[C@@H](O)CO` [sorbitol, D-sorbitol]: in assay [1], the cell growth result was “reached growth saturation after 24 hours”. Also, the “effect on yeast CLS” value in assay [2] (setting [7]) is given as “did not extend the lifespan of the yeast; also recorded: unable to increase the CLS”; in assay [2] (very high concentrations, between 0.5 and 1 M), “increased the CLS of yeast”. Also, in assay [3], the “effect on yeast CLS (known)” value is listed as “increase the CLS of yeast cells”.

In the case of Melanin, in assay [4] (setting [8]), the Outgrowth turned out to be 1.0. Further, in assay [5] (concentration tested 100 μM), the “Yeast CLS increase” value is reported as “Yes”. In assay [5] (setting [9]), the PI intensity is recorded as 39,360.1.

As to Polidocanol [reference compound], the Outgrowth in assay [4] (concentration tested 30 μg/mL, OD600 nm after 24 h in YPD) is 0.1. Besides, the “Yeast CLS increase” value in assay [5] (concentration tested 30 μg/mL) is recorded as “No”. The PI intensity in assay [5] (concentration tested 30 μg/mL, solvent water, age point Day 7) was 74,745.5.

In turn, Schisantherin B showed an Outgrowth in assay [4] (setting [8]) of 0.1. In addition, the “Yeast CLS increase” value in assay [5] (concentration tested 100 μM) was “No”. Further, the PI intensity in assay [5] (setting [9]) is recorded as 68,765.7.

Compound “Streptomycin (sulfate) [reference compound]” showed an Outgrowth in assay [4] (setting [8]) of 0.1. The “Yeast CLS increase” value in assay [5] (concentration tested 100 μM) is reported as “No”. The PI intensity in assay [5] (setting [9]) is 60,638.5.

“Vincristine (sulfate) [reference compound]” showed an Outgrowth in assay [4] (setting [8]) of 0.1. In assay [5] (concentration tested 100 μM), the “Yeast CLS increase” value is listed as “No”. The PI intensity in assay [5] (setting [9]) is reported as 62,812.1.

Regarding copanlisib dihydrochloride, in assay [6], the “log10 PI intensity” value came out at 3.59.

Turning to plicamycin, the “log10 PI intensity” value in assay [6] was determined as 3.91.
